Laboratory results: patent US8207178B2 (priority 2007, dated 2012)
Like-named read-outs stand apart in the source and are kept apart here.

What was measured:
[1] = tested on: wild type HIV-1; assay: microbe, parasite or virus in culture; format: cell-based, human immunodeficiency virus type 1 (HIV-1); conditions: Human immunodeficiency virus 1, Hela-JC53
[2] = tested on: HIV-1 K103N-L100I mutant; assay: microbe, parasite or virus in culture; format: cell-based, human immunodeficiency virus type 1 (HIV-1)
[3] = Human immunodeficiency virus 1, HeLa, read-out: EC50 mutant K103N-L100I, mutant K103N-L100I

In the case of `Cc1cc(-c2cnccc2C#N)cc(C)c1Oc1nc(Nc2ccc(C#N)cc2)nc2ccn(C)c12` [Example 64, 3-(4-(2-(4-cyanophenylamino)-5-methyl-5H-pyrrolo[3,2-d]pyrimidin-4-yloxy)-3,5-dimethylphenyl) isonicotinonitrile], the EC50 [1] is reported as < 1 nM and the EC50 [2, 3] is reported as < 1 nM.
`Cc1cc(-c2cnc(C#N)nc2)cc(C)c1Oc1nc(Nc2ccc(C#N)cc2)nc2ccn(C)c12` [Example 30, 5-(4-(2-(4-Cyanophenylamino)-5-methyl-5H-pyrrolo[3,2-d]pyrimidin-4-yloxy)-3,5-dimethylphenyl)pyrimidine-2-carbonitrile] was tested, and the EC50 [1] was < 1 nM and the EC50 [2, 3] was < 1 nM.
For `Cc1cc(-c2ccncc2C#N)cc(C)c1Oc1nc(Nc2ccc(C#N)cc2)nc2ccn(C)c12` [Example 23, 4-(4-(2-(4-Cyanophenylamino)-5-methyl-5H-pyrrolo[3,2-d]pyrimidin-4-yloxy)-3,5-dimethyl-phenyl)nicotinonitrile], the EC50 [1] was < 1 nM and the EC50 ([2]; read-out: EC50 mutant K103N-L100I, mutant K103N-L100I) was > 10 nM.
With `Cc1cc(-c2cccc(C(N)=O)c2)cc(C)c1Oc1nc(Nc2ccc(C#N)cc2)nc2ccn(C)c12` [Example 77, 4′-(2-(4-cyanophenylamino)-5-methyl-5H-pyrrolo[3,2-d]pyrimidin-4-yloxy)-3′,5′-dimethylbiphenyl-3-carboxamide] the EC50 [1] was 1 to 10 nM and the EC50 [2, 3] was > 10 nM.
With `Cc1cc(-c2ccc(C(=O)N3CCCC3)cc2)cc(C)c1Oc1nc(Nc2ccc(C#N)cc2)nc2ccn(C)c12` [Example 93, 4-(4-(3,5-dimethyl-4′-(pyrrolidine-1-carbonyl)biphenyl-4-yloxy)-5-methyl-5H-pyrrolo[3,2-d]pyrimidin-2-ylamino) benzonitrile] the EC50 [1] was > 10 nM.
In the case of `COc1ccc(Cn2cnc3nc(Nc4ccc(C#N)cc4)nc(Oc4c(C)cc(-c5ccncc5)cc4Cl)c32)cc1` [Example 99, 4-(6-(2-chloro-6-methyl-4-(pyridin-4-yl)phenoxy)-7-(4-methoxybenzyl)-7H-purin-2-ylamino)benzonitrile], the EC50 [1] is reported as 1 to 10 nM and the EC50 [2, 3] is reported as > 10 nM.
With `Cc1cc(-c2ccc(C(N)=O)nc2)cc(C)c1Oc1nc(Nc2ccc(C#N)cc2)nc2[nH]cnc12` [Example 129, 5-(4-(2-(4-cyanophenylamino)-9H-purin-6-yloxy)-3,5-dimethylphenyl)picolinamide] the EC50 [1] was 1 to 10 nM and the EC50 [2, 3] was > 10 nM.
`Cc1cc(-c2ccc(C(=O)O)cc2)cc(C)c1Oc1nc(Nc2ccc(C#N)cc2)nc2ccn(C)c12` [Example 75, 4′-(2-(4-cyanophenylamino)-5-methyl-5H-pyrrolo[3,2-d]pyrimidin-4-yloxy)-3′,5′-dimethylbiphenyl-4-carboxylic acid] was tested, and the EC50 [1] was < 1 nM and the EC50 [2, 3] was 1 to 10 nM.
With `COc1ccc(Cn2cnc3nc(Nc4ccc(C#N)cc4)nc(Oc4c(Cl)cc(-c5ccncc5)cc4Cl)c32)cc1` [Example 103, 4-(6-(2,6-Dichloro-4-(pyridin-4-yl)phenoxy)-7-(4-methoxybenzyl)-7H-purin-2-ylamino)benzonitrile] the EC50 [1] was 1 to 10 nM and the EC50 [2, 3] was > 10 nM.
`Cc1cc(-c2cnc(N(C)C)nc2)cc(C)c1Oc1nc(Nc2ccc(C#N)cc2)nc2ccn(C)c12` [Example 28] was tested, and the EC50 [2, 3] was > 10 nM.
In the case of `Cc1cc(-c2ccc3nonc3c2)cc(C)c1Oc1nc(Nc2ccc(C#N)cc2)nc2ccn(C)c12` [Example 26, 4-(4-(4-(Benzo-[c][1,2,5]oxadiazol-5-yl)-2,6-dimethylphenoxy)-5-methyl-5H-pyrrolo[3,2-d]pyrimidin-2-ylamino) benzonitrile], the EC50 [1] is reported as 1 to 10 nM and the EC50 [2, 3] is reported as 1 to 10 nM.
`Cc1cc(-c2ccc[nH]2)cc(C)c1Oc1nc(Nc2ccc(C#N)cc2)nc2ccn(C)c12` [Example 27, 4-(4-(2,6-Dimethyl-4-(1H pyrrol-2-yl)phenoxy)-5-methyl-5H-pyrrolo[3,2-d]pyrimidin-2-ylamino) benzonitrile] was tested, and the EC50 [1] was < 1 nM and the EC50 [2, 3] was > 10 nM.
For `COc1ccc(Cn2cnc3nc(Nc4ccc(C#N)cc4)nc(Oc4c(C)cc(-c5ccc(C(N)=O)cc5)cc4C)c32)cc1` [Example 49, 4′-(2-(4-Cyanophenylamino)-7-(4-methoxybenzyl)-7H-purin-6-yloxy)-3′,5′-dimethylbiphenyl-4-carboxamide], the EC50 [1] was 1 to 10 nM and the EC50 [2, 3] was > 10 nM.
Compound `COc1cnccc1-c1cc(C)c(Oc2nc(Nc3ccc(C#N)cc3)nc3ccn(C)c23)c(C)c1` [Example 9, 4-(4-(4-(3-Methoxypyridin-4-yl)-2,6-dimethylphenoxy)-5-methyl-5H-pyrrolo[3,2-d]pyrimidin-2-ylamino) benzonitrile] has an EC50 [1] of 1 to 10 nM and an EC50 [2, 3] of 1 to 10 nM.
`Cc1cc(-c2cnc(N)nc2)cc(C)c1Oc1nc(Nc2ccc(C#N)cc2)nc2ccn(C)c12` [Example 70, 4-(4-(4-(2-aminopyrimidin-5-yl)-2,6-dimethylbiphenoxy)-5-methyl-5H-pyrrolo[3,2-d]pyrimidin-2-ylamino) benzonitrile] was tested, and the EC50 [2, 3] was 1 to 10 nM.
For `Cc1cc(-c2cccc3cnccc23)cc(C)c1Oc1nc(Nc2ccc(C#N)cc2)nc2ccn(C)c12` [Example 39, 4-(4-(4-(Isoquinolin-5-yl)-2,6-dimethylphenoxy)-5-methyl-5H-pyrrolo[3,2-d]pyrimidin-2-ylamino) benzonitrile], the EC50 [1] was > 10 nM and the EC50 [2, 3] was > 10 nM.
`Cc1cc(-c2ccc(F)cc2)cc(C)c1Oc1nc(Nc2ccc(C#N)cc2)nc2ccn(C)c12` [Example 62, 4-(4-(4′-fluoro-3,5-dimethylbiphenyl-4-yloxy)-5-methyl-5H-pyrrolo[3,2-d]pyrimidin-2-ylamino) benzonitrile] was tested, and the EC50 [1] was 1 to 10 nM and the EC50 [2, 3] was > 10 nM.
Work on `Cc1cc(-c2ccncc2)cc(C)c1Oc1nc(Nc2ccc(C#N)cc2)nc2c1ncn2C` [Example 108, 4-(6-(2,6-dimethyl-4-(pyridin-4-yl)phenoxy)-9-methyl-9H-purin-2-ylamino)benzonitrile] yielded an EC50 [1] of 1 to 10 nM and an EC50 [2, 3] of 1 to 10 nM.
For `COc1cc(-c2cc(C)c(Oc3nc(Nc4ccc(C#N)cc4)nc4ccn(C)c34)c(C)c2)ccn1` [Example 10, 4-(4-(4-(2-Methoxypyridin-4-yl)-2,6-dimethylphenoxy)-5-methyl-5H-pyrrolo[3,2-d]pyrimidin-2-ylamino) benzonitrile], the EC50 [1] was > 10 nM and the EC50 [2, 3] was > 10 nM.
`Cc1cc(-c2cn[nH]c2)cc(C)c1Oc1nc(Nc2ccc(C#N)cc2)nc2c(Cl)cn(C)c12` [Example 32, 4-(7-Chloro-4-(2,6-dimethyl-4-(1H-pyrazol-4-yl)phenoxy)-5-methyl-5H-pyrrolo[3,2-d]pyrimidin-2-ylamino)benzonitrile] was tested, and the EC50 [1] was 1 to 10 nM and the EC50 [2, 3] was > 10 nM.
`Cc1cc(-c2ccc(C(=O)N3CCC(O)C3)cc2)cc(C)c1Oc1nc(Nc2ccc(C#N)cc2)nc2ccn(C)c12` (centres unmarked) [Example 94, 4-(4-(4′-(3-hydroxypyrrolidine-1-carbonyl)-3,5-dimethylbiphenyl-4-yloxy)-5-methyl-5H-pyrrolo[3,2-d]pyrimidin-2-ylamino) benzonitrile] gave an EC50 [1] of 1 to 10 nM and an EC50 [2, 3] of 1 to 10 nM.
In the case of `Cc1cc(-c2ccc(C(=O)O)cc2)cc(C)c1Oc1nc(Nc2ccc(C#N)cc2)nc2ncn(C)c12` [Example 110, 4′-(2-(4-Cyanophenylamino)-7-methyl-7H-purin-6-yloxy)-3′,5′-dimethylbiphenyl-4-carboxylic acid], the EC50 [1] is reported as > 10 nM and the EC50 [2, 3] is reported as > 10 nM.
With `Cn1cnc2c(Oc3c(Cl)cc(-c4ccc(C(N)=O)cc4)cc3Cl)nc(Nc3ccc(C#N)cc3)nc21` [Example 114, 3′,5′-dichloro-4′-(2-(4-cyanophenylamino)-9-methyl-9H-purin-6-yloxy)biphenyl-4-carboxamide] the EC50 [1] was < 1 nM and the EC50 [2, 3] was > 10 nM.
With `Cc1cc(-c2ccc(N)cc2)cc(C)c1Oc1nc(Nc2ccc(C#N)cc2)nc2ccn(C)c12` [Example 54, 4-(4-(4′-Amino-3,5-dimethylbiphenyl-4-yloxy)-5-methyl-5H-pyrrolo[3,2-d]pyrimidin-2-ylamino) benzonitrile] the EC50 [1] was < 1 nM and the EC50 [2, 3] was > 10 nM.
With `Cc1cc(-c2ccoc2)cc(C)c1Oc1nc(Nc2ccc(C#N)cc2)nc2ccn(C)c12` [Example 13, 4-(4-(4-(Furan-3-yl)-2,6-dimethylphenoxy)-5-methyl-5H-pyrrolo[3,2-d]pyrimidin-2-ylamino)benzonitrile] the EC50 [1] was 1 to 10 nM and the EC50 [2, 3] was > 10 nM.
With `Cc1cc(-c2ccc(C(=O)N3CCC(C(N)=O)C3)cn2)cc(C)c1Oc1nc(Nc2ccc(C#N)cc2)nc2[nH]cnc12` (centres unmarked) [Example 122, 1-(6-(4-(2-(4-cyanophenylamino)-9H-purin-6-yloxy)-3,5-dimethylphenyl)nicotinoyl)pyrrolidine-3-carboxamide] the EC50 [1] was > 10 nM.
With `Cc1cc(-c2ccc(C(=O)O)cn2)cc(C)c1Oc1nc(Nc2ccc(C#N)cc2)nc2[nH]cnc12` [Example 121, 6-(4-(2-(4-cyanophenylamino)-9H-purin-6-yloxy)-3,5-dimethylphenyl)nicotinic acid] the EC50 [1] was > 10 nM.
`COc1ccc(-c2cc(C)c(Oc3nc(Nc4ccc(C#N)cc4)nc4ccn(C)c34)c(C)c2)cn1` [Example 82, 4-(4-(4-(6-methoxypyridin-3-yl)-2,6-dimethylphenoxy)-5-methyl-5H-pyrrolo[3,2-d]pyrimidin-2-ylamino) benzonitrile] was tested, and the EC50 [1] was > 10 nM.
`COc1cccc(C#N)c1-c1cc(C)c(Oc2nc(Nc3ccc(C#N)cc3)nc3ccn(C)c23)c(C)c1` [Example 83, 4′-(2-(4-cyanophenylamino)-5-methyl-5H-pyrrolo[3,2-d]pyrimidin-4-yloxy)-6-methoxy-3′,5′-dimethylbiphenyl-2-carbonitrile] was tested, and the EC50 [1] was > 10 nM.
For `Cc1cc(-c2cccc(S(N)(=O)=O)c2)cc(C)c1Oc1nc(Nc2ccc(C#N)cc2)nc2ccn(C)c12` [Example 71, 4′-(2-(4-cyanophenylamino)-5-methyl-5H-pyrrolo[3,2-d]pyrimidin-4-yloxy)-3′,5′-dimethylbiphenyl-3-sulfonamide], the EC50 [2, 3] was > 10 nM.
`Cc1cc(-c2ccc(C(N)=O)cn2)cc(C)c1Oc1nc(Nc2ccc(C#N)cc2)nc2[nH]cnc12` [Example 126, 6-(4-(2-(4-cyanophenylamino)-9H-purin-6-yloxy)-3,5-dimethylphenyl)nicotinamide] gave an EC50 [1] of 1 to 10 nM.
